From patent EP0409236A1, “Optically active naphthylethanol derivative” (Eisai Co., Ltd., priority 1989, dated 1991)
Values joined by “and” are separate entries in the source; they are usually repeats but may differ in a detail not shown here. Identical values can stand only once. Counter-ions that a name gives are not always drawn.

Columns and labels:
male ddy mice = assay: Effect on KCN-induced mortality in mice; conditions: mouse, in vivo; hydrochloride
[1] = system: pyramidal cells in the CA1 region of the gerbil hippocampus; assay: Effect on ischemia-induced neuronal damage in the gerbil hippocampus; assay type: in vivo; conditions: i.p., one hour before 5-min ischemia, normal pyramidal cells in 0.105 x 1.175 mm² of CA1, one week later
Description: Effect on ischemia-induced neuronal damage in the gerbil hippo- campus
Kirino reported that a brief cerebral ischemia caused the destruction of the pyramidal cells in the CA1 region of the gerbil hippocampus [Brain Res. 239: 57-69 (1982)]. Effect of the compound(B) on this ischemia-induced neuronal damage was examined.
The compounds were intraperitoneally administered to each animal and one hour later 5-min ischemia was produced by clamping both common carotid arteries. One week after the 5-min ischemia gerbils were fixed by transcardiac perfusion of fixative which consisted of 4% formaldehyde in phosphate buffer (pH 7.4). The fixed brain was embedded in paraffin and semi-thin (3 µm) sections were cut at a level of the dorsal hippocampus. The sections were stained with feulgen for cell counting by an image-analyzing computer. Normal pyramidal cells in the area of 0.105 x 1.175 mm² were counted.

Molecule | Survival time (sec) mean ± SEM (male ddy mice) | neuronal density mean ± SEM ([1]; 3 mg/kg) | neuronal density mean ± SEM ([1]; 10 mg/kg) | neuronal density mean ± SEM ([1]; 30 mg/kg) | neuronal density mean ± SEM ([1]; 1 mg/kg)
(R)-(-)-2-[4-(p-Fluorobenzoyl)-1-piperidylj-1-naphthylethanol hydrochloride [ℓ-isomer of compound (B)] | 40.2 ± 1.8 s and 43.0 ± 1.8 s and 44.8 ± 1.9 s | 1.9 ± 0.5 | 17.2 ± 5.2 | 12.0 ± 3.4 | 
O=C(c1ccc(F)cc1)C1CCN(C[C@@H](O)c2ccc3ccccc3c2)CC1 [d-isomer of compound (B), hydrochloride] | 52.4 ± 2.4 s and 50.1 ± 1.6 s and 62.5 ± 4.4 s | 16.5 ± 4.0 | 34.6 ± 1.1 |  | 9.3 ± 4.6
